Laboratory results published in ChEMBL document CHEMBL4507281, “Data for DCP probe BI-4394” (2021).

Columns and labels:
[1] = target: Ribosomal protein S6 kinase alpha-3 (Homo sapiens) (UniProt P51812); conditions: Compound concentration 100.0 nM
[2] = target: T1, Serine/threonine-protein kinase Chk1 (Homo sapiens) (UniProt O14757); conditions: Compound concentration 100.0 nM
T1 sequence (whole entry): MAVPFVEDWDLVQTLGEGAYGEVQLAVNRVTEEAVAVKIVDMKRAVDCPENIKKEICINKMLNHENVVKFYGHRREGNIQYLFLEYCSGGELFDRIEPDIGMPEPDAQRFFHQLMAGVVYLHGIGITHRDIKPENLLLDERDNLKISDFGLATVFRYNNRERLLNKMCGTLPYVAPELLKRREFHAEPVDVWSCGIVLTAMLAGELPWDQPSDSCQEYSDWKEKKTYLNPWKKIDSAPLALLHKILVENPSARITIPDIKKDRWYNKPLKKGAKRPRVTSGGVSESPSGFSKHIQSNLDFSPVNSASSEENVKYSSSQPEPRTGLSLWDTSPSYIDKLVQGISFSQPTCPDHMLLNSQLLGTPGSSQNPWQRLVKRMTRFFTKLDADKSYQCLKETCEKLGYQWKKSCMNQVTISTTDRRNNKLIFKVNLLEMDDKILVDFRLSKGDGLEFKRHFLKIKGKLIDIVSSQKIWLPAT

[3] = target: MAP kinase-activated protein kinase 2 (Homo sapiens) (UniProt P49137); conditions: Compound concentration 100.0 nM
[4] = target: Beta-adrenergic receptor kinase 1 (Homo sapiens) (UniProt P25098); conditions: Compound concentration 100.0 nM
[5] = target: T2, Protein kinase C epsilon type (Homo sapiens) (UniProt Q02156); conditions: Compound concentration 100.0 nM
T2 sequence (whole entry): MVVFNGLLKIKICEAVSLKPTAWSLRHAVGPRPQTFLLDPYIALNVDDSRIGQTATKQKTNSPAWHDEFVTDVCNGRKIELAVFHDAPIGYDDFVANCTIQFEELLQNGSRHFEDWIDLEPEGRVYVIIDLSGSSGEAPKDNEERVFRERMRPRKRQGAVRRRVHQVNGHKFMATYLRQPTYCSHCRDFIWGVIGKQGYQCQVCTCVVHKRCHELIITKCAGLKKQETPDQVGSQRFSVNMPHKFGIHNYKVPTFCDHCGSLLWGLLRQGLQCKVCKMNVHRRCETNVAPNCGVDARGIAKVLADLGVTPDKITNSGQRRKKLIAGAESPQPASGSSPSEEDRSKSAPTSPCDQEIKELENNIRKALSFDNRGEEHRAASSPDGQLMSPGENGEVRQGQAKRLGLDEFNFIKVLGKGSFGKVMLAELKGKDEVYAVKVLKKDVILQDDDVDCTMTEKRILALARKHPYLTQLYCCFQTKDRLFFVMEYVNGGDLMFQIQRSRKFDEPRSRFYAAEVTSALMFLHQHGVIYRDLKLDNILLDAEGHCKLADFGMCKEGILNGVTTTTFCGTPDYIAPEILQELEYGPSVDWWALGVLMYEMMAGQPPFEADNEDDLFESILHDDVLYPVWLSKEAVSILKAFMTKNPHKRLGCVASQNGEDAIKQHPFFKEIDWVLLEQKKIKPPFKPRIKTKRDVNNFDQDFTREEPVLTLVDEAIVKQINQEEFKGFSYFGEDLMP

[6] = target: Serine/threonine-protein kinase N2 (Homo sapiens) (UniProt Q16513); conditions: Compound concentration 100.0 nM
[7] = target: Rhodopsin kinase GRK1 (Homo sapiens) (UniProt Q15835); conditions: Compound concentration 100.0 nM
[8] = target: Serine/threonine-protein kinase ICK (Homo sapiens) (UniProt Q9UPZ9); conditions: Compound concentration 100.0 nM
[9] = target: Tyrosine-protein kinase Fer (Homo sapiens) (UniProt P16591); conditions: Compound concentration 100.0 nM
[10] = target: Serine/threonine-protein kinase TAO1 (Homo sapiens) (UniProt Q7L7X3); conditions: Compound concentration 100.0 nM
[11] = target: Maternal embryonic leucine zipper kinase (Homo sapiens) (UniProt Q14680); conditions: Compound concentration 100.0 nM
[12] = target: Serine/threonine-protein kinase LATS2 (Homo sapiens) (UniProt Q9NRM7); conditions: Compound concentration 100.0 nM
[13] = target: Cyclin-dependent kinase 4 (Homo sapiens) (UniProt P11802); conditions: Compound concentration 100.0 nM
[14] = target: TGF-beta receptor type-2 (Homo sapiens) (UniProt P37173); conditions: Compound concentration 100.0 nM
[15] = target: Tyrosine-protein kinase Yes (Homo sapiens) (UniProt P07947); conditions: Compound concentration 100.0 nM
[16] = target: Tyrosine-protein kinase Blk (Homo sapiens) (UniProt P51451); conditions: Compound concentration 100.0 nM
[17] = target: Myosin light chain kinase (Homo sapiens) (UniProt Q32MK0); conditions: Compound concentration 100.0 nM
[18] = target: Rho-associated protein kinase 2 (Homo sapiens) (UniProt O75116); conditions: Compound concentration 100.0 nM
[19] = target: Phosphatidylinositol 4-phosphate 5-kinase type-1 alpha (Homo sapiens) (UniProt Q99755); conditions: Compound concentration 100.0 nM
[20] = target: Cyclin-dependent kinase 5 (Homo sapiens) (UniProt Q00535); conditions: Compound concentration 100.0 nM
[21] = target: Ephrin type-A receptor 1 (Homo sapiens) (UniProt P21709); conditions: Compound concentration 100.0 nM
[22] = target: 5-hydroxytryptamine receptor 2C (Homo sapiens) (UniProt P28335); conditions: Compound concentration 10.0 uM
[23] = target: Cyclin-dependent kinase-like 2 (Homo sapiens) (UniProt Q92772); conditions: Compound concentration 100.0 nM
[24] = target: Cyclin-dependent kinase 2 homolog (Plasmodium falciparum (isolate 3D7)) (UniProt P61075); conditions: Compound concentration 100.0 nM
[25] = target: Phosphatidylinositol 5-phosphate 4-kinase type-2 gamma (Homo sapiens) (UniProt Q8TBX8); conditions: Compound concentration 100.0 nM
[26] = target: SNF-related serine/threonine-protein kinase (Homo sapiens) (UniProt Q9NRH2); conditions: Compound concentration 100.0 nM
[27] = target: Mitogen-activated protein kinase 12 (Homo sapiens) (UniProt P53778); conditions: Compound concentration 100.0 nM
[28] = target: Serine/threonine-protein kinase MARK2 (Homo sapiens) (UniProt Q7KZI7); conditions: Compound concentration 100.0 nM
[29] = target: Mitogen-activated protein kinase 11 (Homo sapiens) (UniProt Q15759); conditions: Compound concentration 100.0 nM
Sequence of Mitogen-activated protein kinase 11 (Homo sapiens) (Q15759 whole entry): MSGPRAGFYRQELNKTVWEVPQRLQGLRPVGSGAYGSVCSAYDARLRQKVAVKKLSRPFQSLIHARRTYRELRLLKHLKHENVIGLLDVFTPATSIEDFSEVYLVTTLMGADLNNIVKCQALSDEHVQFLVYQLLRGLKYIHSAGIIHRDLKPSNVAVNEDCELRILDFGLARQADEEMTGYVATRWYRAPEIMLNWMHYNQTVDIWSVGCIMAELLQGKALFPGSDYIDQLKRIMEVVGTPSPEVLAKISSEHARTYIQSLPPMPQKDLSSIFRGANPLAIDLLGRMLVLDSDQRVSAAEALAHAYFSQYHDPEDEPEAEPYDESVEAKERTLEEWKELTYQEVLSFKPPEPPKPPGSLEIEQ

Sequence of SNF-related serine/threonine-protein kinase (Homo sapiens) (Q9NRH2 whole entry): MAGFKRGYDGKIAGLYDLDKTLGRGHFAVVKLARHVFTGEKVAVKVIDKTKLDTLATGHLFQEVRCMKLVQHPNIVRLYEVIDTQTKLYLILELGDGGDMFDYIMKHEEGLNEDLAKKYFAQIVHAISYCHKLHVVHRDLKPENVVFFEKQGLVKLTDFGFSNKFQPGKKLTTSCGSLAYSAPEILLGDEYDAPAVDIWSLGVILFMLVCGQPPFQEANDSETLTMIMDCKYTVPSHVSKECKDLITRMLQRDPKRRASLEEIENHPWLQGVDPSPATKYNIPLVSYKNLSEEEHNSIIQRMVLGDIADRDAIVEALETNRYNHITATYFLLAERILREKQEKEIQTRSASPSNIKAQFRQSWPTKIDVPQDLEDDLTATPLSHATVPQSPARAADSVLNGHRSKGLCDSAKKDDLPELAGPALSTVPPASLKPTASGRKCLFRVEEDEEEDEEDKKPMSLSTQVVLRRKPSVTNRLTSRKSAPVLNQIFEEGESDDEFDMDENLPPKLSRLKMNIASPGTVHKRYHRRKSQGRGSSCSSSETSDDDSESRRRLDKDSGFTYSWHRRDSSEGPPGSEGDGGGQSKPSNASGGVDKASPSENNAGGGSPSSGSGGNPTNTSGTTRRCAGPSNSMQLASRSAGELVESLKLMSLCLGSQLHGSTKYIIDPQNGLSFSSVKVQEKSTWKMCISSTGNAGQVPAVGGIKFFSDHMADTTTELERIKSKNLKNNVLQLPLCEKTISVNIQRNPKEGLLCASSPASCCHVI
Sequence of Cyclin-dependent kinase 2 homolog (Plasmodium falciparum (isolate 3D7)) (P61075 whole entry): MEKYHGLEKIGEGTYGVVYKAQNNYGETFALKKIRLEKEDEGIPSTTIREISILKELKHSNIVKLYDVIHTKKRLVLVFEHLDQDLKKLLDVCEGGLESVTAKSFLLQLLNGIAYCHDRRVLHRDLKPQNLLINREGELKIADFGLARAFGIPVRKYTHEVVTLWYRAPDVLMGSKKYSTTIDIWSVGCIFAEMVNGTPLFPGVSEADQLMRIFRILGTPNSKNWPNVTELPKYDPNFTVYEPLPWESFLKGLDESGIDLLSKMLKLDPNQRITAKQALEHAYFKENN
Sequence of Serine/threonine-protein kinase MARK2 (Homo sapiens) (Q7KZI7 whole entry): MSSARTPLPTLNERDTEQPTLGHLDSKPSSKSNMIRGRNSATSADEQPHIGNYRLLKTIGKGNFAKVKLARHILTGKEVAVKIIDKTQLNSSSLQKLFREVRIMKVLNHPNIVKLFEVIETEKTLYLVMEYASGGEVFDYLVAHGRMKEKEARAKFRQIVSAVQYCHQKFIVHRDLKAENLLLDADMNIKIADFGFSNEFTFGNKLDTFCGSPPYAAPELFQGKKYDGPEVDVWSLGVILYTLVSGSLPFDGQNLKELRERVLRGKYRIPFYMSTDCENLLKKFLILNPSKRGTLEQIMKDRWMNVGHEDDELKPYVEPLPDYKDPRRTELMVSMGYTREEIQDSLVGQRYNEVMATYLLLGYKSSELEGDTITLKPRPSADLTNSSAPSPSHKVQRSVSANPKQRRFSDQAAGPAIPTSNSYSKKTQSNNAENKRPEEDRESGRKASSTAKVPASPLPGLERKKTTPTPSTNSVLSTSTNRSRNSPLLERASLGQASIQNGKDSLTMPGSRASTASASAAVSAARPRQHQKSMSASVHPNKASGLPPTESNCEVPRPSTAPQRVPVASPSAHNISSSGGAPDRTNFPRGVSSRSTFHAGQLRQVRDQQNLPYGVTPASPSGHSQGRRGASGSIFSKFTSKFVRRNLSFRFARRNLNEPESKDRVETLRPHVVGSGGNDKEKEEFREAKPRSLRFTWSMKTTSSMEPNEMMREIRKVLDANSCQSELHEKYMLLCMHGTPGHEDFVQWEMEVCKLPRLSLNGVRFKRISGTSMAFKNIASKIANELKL
Sequence of Rhodopsin kinase GRK1 (Homo sapiens) (Q15835 whole entry): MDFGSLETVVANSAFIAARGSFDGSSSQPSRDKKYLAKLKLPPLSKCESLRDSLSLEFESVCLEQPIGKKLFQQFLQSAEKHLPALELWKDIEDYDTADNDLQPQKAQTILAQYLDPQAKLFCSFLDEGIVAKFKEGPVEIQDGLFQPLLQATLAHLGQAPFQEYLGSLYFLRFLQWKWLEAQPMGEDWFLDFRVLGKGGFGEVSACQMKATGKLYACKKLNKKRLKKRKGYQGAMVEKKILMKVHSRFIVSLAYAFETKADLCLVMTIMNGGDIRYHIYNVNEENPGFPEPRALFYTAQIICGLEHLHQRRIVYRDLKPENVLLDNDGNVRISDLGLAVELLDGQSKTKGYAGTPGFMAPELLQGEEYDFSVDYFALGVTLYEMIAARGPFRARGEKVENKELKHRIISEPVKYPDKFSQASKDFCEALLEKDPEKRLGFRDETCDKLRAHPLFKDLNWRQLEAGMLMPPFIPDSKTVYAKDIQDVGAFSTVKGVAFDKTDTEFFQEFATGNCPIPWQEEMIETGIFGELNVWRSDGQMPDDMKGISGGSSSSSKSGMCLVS
Sequence of Cyclin-dependent kinase 5 (Homo sapiens) (Q00535 whole entry, looked up): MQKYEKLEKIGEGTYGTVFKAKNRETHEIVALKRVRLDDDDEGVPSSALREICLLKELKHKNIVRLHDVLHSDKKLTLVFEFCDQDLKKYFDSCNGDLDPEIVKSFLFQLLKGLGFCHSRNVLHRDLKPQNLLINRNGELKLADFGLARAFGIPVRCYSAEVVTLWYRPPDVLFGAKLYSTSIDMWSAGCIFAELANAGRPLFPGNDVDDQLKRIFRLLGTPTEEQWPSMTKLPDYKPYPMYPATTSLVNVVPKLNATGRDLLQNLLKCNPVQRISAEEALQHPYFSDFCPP
Sequence of Serine/threonine-protein kinase N2 (Homo sapiens) (Q16513 whole entry, looked up): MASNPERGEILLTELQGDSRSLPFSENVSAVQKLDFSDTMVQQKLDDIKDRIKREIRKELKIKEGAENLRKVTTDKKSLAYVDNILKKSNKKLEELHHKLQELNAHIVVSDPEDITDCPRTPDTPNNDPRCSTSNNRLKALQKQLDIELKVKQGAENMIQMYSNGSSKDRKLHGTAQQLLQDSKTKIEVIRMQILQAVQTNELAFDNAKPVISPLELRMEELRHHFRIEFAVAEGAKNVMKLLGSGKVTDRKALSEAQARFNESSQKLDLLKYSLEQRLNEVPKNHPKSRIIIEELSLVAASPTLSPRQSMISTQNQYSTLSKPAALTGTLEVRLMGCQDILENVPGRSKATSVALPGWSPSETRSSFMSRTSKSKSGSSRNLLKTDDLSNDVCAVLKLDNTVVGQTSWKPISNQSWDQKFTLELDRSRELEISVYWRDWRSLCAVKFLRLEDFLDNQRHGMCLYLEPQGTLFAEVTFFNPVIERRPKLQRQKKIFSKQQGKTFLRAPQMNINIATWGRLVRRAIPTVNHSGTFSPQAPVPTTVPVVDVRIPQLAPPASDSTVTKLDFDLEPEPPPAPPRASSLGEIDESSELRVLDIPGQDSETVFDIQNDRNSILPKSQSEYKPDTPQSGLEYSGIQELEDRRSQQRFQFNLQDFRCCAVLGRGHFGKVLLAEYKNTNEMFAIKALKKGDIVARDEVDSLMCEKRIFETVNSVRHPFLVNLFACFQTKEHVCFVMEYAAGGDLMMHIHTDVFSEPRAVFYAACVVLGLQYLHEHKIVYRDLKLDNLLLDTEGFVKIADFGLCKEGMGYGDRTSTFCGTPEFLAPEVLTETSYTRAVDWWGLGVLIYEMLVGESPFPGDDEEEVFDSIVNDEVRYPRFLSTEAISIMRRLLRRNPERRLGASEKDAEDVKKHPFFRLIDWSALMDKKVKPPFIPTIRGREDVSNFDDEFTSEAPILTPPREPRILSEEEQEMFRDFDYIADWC
Sequence of Cyclin-dependent kinase 4 (Homo sapiens) (P11802 whole entry): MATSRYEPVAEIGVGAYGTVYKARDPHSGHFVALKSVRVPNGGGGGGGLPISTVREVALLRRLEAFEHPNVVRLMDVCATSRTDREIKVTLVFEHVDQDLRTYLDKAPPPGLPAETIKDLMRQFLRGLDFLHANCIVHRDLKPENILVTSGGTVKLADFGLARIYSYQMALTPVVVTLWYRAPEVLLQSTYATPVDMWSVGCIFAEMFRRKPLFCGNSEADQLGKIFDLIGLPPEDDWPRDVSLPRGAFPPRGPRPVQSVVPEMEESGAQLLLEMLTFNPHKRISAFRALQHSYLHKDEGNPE
Sequence of Serine/threonine-protein kinase ICK (Homo sapiens) (Q9UPZ9 whole entry): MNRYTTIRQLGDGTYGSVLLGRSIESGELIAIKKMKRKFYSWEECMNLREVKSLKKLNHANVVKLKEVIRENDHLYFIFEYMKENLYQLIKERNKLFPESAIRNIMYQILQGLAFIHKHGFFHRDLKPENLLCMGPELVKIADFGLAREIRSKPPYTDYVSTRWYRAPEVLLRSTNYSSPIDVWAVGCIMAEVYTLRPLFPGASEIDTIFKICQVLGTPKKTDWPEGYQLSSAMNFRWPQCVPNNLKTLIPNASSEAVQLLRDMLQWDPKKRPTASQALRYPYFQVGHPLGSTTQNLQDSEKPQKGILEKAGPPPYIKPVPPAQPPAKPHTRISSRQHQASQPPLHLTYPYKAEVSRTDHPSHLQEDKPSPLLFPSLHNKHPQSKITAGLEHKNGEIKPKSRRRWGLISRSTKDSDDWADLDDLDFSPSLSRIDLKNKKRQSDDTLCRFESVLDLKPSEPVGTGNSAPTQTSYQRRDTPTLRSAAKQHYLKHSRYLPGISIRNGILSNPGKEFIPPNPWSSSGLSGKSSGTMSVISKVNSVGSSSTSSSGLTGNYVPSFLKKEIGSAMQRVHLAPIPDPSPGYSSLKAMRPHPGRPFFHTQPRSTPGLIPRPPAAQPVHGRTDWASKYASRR

CCOC(=O)c1cc2cc(-c3cc(C(=O)NCc4ccc(C(=O)O)cc4)nn3C)ccc2[nH]1 [BI 4394]
inactive: residual activity [1] 80% | residual activity [2] 100% | residual activity [3] 72% | residual activity [4] 100% | residual activity [5] 90% | residual activity [6] 86% | residual activity [7] 95% | residual activity [8] 85% | residual activity [9] 100% | residual activity [10] 90% | residual activity [11] 100% | residual activity [12] 74% | residual activity [13] 82% | residual activity [14] 66% | residual activity [15] 100% | residual activity [16] 99% | residual activity [17] 89% | residual activity [18] 85% | residual activity [19] 100% | residual activity [20] 94% | residual activity [21] 100% | inhibition [22] 3.56% | residual activity [23] 88% | residual activity [24] 65% | residual activity [25] 95% | residual activity [26] 80% | residual activity [27] 77% | residual activity [28] 100% | residual activity [29] 98%

Cn1nc(C(=O)NCc2ccc(C(=O)O)cc2)cc1-c1ccc2[nH]ccc2c1 [BI 4395]
inactive: residual activity [1] 70% | residual activity [2] 83% | residual activity [3] 55% | residual activity [4] 98% | residual activity [5] 64% | residual activity [6] 100% | residual activity [7] 100% | residual activity [8] 72% | residual activity [9] 93% | residual activity [10] 91% | residual activity [11] 86% | residual activity [12] 100% | residual activity [13] 96% | residual activity [14] 100% | residual activity [15] 84% | residual activity [16] 100% | residual activity [17] 100% | residual activity [18] 82% | residual activity [19] 63% | residual activity [20] 90% | residual activity [21] 95% | inhibition [22] -9.67% | residual activity [23] 78% | residual activity [24] 74% | residual activity [25] 63% | residual activity [26] 92% | residual activity [27] 90% | residual activity [28] 100% | residual activity [29] 86%
